According to ChEMBL document CHEMBL1133424, “Fluoresceinated FKBP12 ligands for a high-throughput fluorescence polarization assay” (Bioorg Med Chem Lett, 2000):

Tests used:
[1] = biological target: T1, Peptidyl-prolyl cis-trans isomerase FKBP1A (Homo sapiens, UniProt P62942); assay: Concentration required to produce a half-maximal FP signal at against FK506 binding protein 12 at ligand concentration of 100 nM
[2] = biological target: T1, Peptidyl-prolyl cis-trans isomerase FKBP1A; assay: Binding affinity of compound for FK506 binding protein 12

T1 sequence (P62942 whole entry): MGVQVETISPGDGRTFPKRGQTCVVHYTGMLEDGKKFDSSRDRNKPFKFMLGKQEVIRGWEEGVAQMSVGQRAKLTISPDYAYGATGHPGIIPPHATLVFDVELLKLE

Compound | IC50 [1] | Ki [2]
CCC(C)(C)C(=O)C(=O)N1CCC[C@H]1C(=O)OCCC/N=C(S)/N=C1\C=CC(=C2c3ccc(O)cc3Oc3cc(O)ccc32)C(C(=O)O)=C1 | 1650 nM | 1300 nM
CC(C)(C)CC(=O)C(=O)N1CCCC[C@H]1C(=O)OCCC/N=C(S)/N=C1\C=CC(=C2c3ccc(O)cc3Oc3cc(O)ccc32)C(C(=O)O)=C1 | 980 nM | 482 nM
CC(C)(C)CC(=O)C(=O)N1CCCC[C@H]1C(=O)OC(CCCc1ccccc1)CC/N=C(S)/N=C1\C=CC(=C2c3ccc(O)cc3Oc3cc(O)ccc32)C(C(=O)O)=C1 (stereo partly drawn) | 250 nM | 32 nM
COc1cc(C(=O)C(=O)N2CCCC[C@H]2C(=O)OCCCC/N=C(S)/N=C2\C=CC(=C3c4ccc(O)cc4Oc4cc(O)ccc43)C(C(=O)O)=C2)cc(OC)c1OC | 410 nM | 526 nM
